Experiments:
[1] = system: Acinetobacter biofilms; assay: Biofilm biomass, crystal violet staining in 96-well plates; type: cell-based; settings: 16 hours incubation
Description: (§1) Overnight LB-grown culture was diluted 100 times with 10% LB medium, and 100 μL of the dilution was inoculated into each well of 96-well plates. dATP, dGTP, DNase I, or apyrase was added into wells to result in the desired concentrations. An equivalent volume of 10% LB medium was added into wells as control. Plates were covered with lids and incubated at 30° C. for 16 hours before optical density (OD) was measured at 600 nm for the record of growth. Fifteen microliters of 0.1% crystal violet solution was added into each well for crystal violet staining (CV staining) After 15 min of staining, each well was washed gently three times with 100 μl of PBS buffer. Supernatant in each well was removed and 100 μl of 75% ethanol was added to dissolve crystal violet before measuring optical density at 600 nm (CV OD) for the quantification of biofilm biomass.
(§2) For visualization of biofilm structure (FIG. 2), biofilms were developed as described above. After 16 hours of incubation, supernatant was removed from each well and 100 μl of PBS buffer containing 0.1 mM SYTO-9 green, 10 mM Propidium Iodide (PI) was added for staining in dark for 15 min. Cell images were acquired with a Perkin Elmer UltraView confocal microscope system equipped with an Argon-Krypton laser. Images were taken with an oil immersion 60× objective lens in two channels (488 nm excitation for SYTO9 and 568 nm excitation for PI). […]

[2] = system: S. aureus; assay: Biofilm formation, crystal violet staining in 96-well plates; type: cell-based; settings: 400 μM dATP
Description: as §1

[3] = system: S. maltophilia; assay: as above; type: cell-based; settings: 400 μM dATP
Description: as §1

[4] = system: E. coli; assay: as above; type: cell-based; settings: 400 μM dATP
Description: as §1, §2

[5] = system: Acinetobacter; assay: Bacterial initial attachment assay; type: cell-based; settings: 125 μM dATP; visualized at 2 h, 4 h and 8 h post-treatment
Description: Bacterial initial attachment assay: 1% of an overnight culture was inoculated into the wells of 96-well glass bottom microplate containing 100 μl of 10% LB media, after predetermined incubation time, suspension was removed from each well and rinsed with PBS buffer for three times then biofilm samples were stained with LIVE/DEAD BacLight Bacterial Viability Kits (cat. L7007, Invitrogen) following the instructions in the manual. All microscopic observations and image acquisitions were performed with Olympus IX71 equipped with detectors and filter sets for monitoring of SYTO-9 and propidium iodide (PI). Images were obtained using a 60× objective.

[6] = system: Acinetobacter cultures; assay: CytoTox-Glo cytotoxicity assay (programmed cell death); type: cell-based; settings: 24 h post-treatment
Description: Cytotoxicity Assay: Planktonic cells and biofilm cells were collected as described above and washed with PBS buffer three times. Cell concentration was adjusted to 1-1.5×10^8 CFU/ml with PBS buffer and samples were ready for dead-cell protease activity, which had been released from cells that had lost membrane integrity, by using CytoTox-Glo™ Cytotoxicity Assay (Cat. G9291. Promega. Madison, Wis.) following the instructions by the manufacturer.

[7] = system: Acinetobacter; assay: Extracellular DNA (eDNA) extraction and quantification; type: cell-based
Description: DNA extraction and quantification: Biofilms were developed as mentioned above for 16 hours and biofilm cells were resuspended with 0.9% NaCl solution, homogenized for 1 min and utilized for eDNA extraction. Planktonic cells were incubated at 30° C. for 8 hours with a 1% of inoculation and cells were washed with fresh 10% of LB broth three times before resuspension in the same volume of 10% of LB broth or 10% LB broth supplemented with 400 μM of dATP. The cells solutions were then incubated at 30° C. for another 2 hour and were ready for eDNA extraction. Biofilm cells suspension and planktonic cultures were treated as previously reported (27) for DNA extraction. Briefly, cell solution was treated with Dispersin B (20 μg/ml) at 37° C. for 30 min followed by treatment of proteinase K (5 μg/ml) for another 30 min at 37° C. Treated cell solution was filtered through a 0.2 μm syringe filter (PES, Water & Process Technologies), elute was used to extract the extracellular DNA by using ethanol precipitation. DNA was dissolved in 50 μl of sterile MilliQ water and the concentration of DNA was measured by using the PicoGreen dsDNA Quantitation Kit (Molecular Probes, Invitrogen).

[8] = system: Acinetobacter baumannii ATCC 17978; assay: Bacterial adherence assay on human bronchial epithelial NCI-H292 cells; type: cell-based
Description: Bacterial adherence assay was performed as described ([…]; herein incorporated by reference in its entirety). Human bronchial epithelial cell line NCI-H292 (ATCC CRL-1848; American Tissue Culture Collection, Rockville, Md., USA) were cultured in a petri dish at 37° C. in RPMI 1640 medium (Gibco BRL, Grand Island, N.Y., USA), supplemented with 25 mM HEPES, 2 mM L-glutamine, penicillin G 100,000 U/L, streptomycin 50 mg/L and 10% (v/v) of fetal bovine serum (Gibco BRL), in a humidified atmosphere containing 5% (v/v) of CO2.
When NCI-H292 cells covered about 80% of the bottom of petri dish, the medium was replaced with 0.25% trypsin-EDTA (1689649, MP Biomedicals, Solon Ohio) and the petri dish was incubated at 37° C. for 10 min. NCI-H292 Cells were collected by cell scraper and washed with fresh RPMI 1640 medium three time by centrifuging at 300×g for 3 min. Washed cells were adjusted to the concentration of 1×10^5 cells per ml with fresh RPMI 1640 and 2 ml of cell solution were transferred to each well of a 12-well plate, which contained a 13-mm-diameter plastic coverslip (Thermanox, Nunc, Rochester, N.Y., USA) in each well. The cells were incubated at 37° C. for about 3 days until cells covered about 90% of coverslip and were then washed with phosphate buffered saline (PBS) three times. Acinetobacter baumannii ATCC 17978 grown overnight in Luria Bertani (LB) medium were collected and washed three times with fresh RPMI 1640 medium by centrifuging at 6,000 rpm for 3 min. Bacterial cells were adjusted to the concentration of 1×10^8 CFU/mL (OD600=0.05) and mixed with reagents (400 μM of dATP, or 200 mU/ml of apyrase) as necessary. Each cell monolayer was infected with 1 mL of bacterial suspension and incubated for 60 min at 37° C. in a CO2 5% v/v atmosphere. For damaged cell assays, NCI-H292 cells (around 5%) in the central area of plastic coverslips were damaged by tip of a knife before the infection performed. […] The number of bacteria adhering to 100 cells was determined. […]

[9] = system: Acinetobacter baumannii; assay: Acinetobacter baumannii adherence in mouse wound infection model; type: in vivo, C57BL/6 mice; settings: burn wound sites treated with 400 mU/mL apyrase during inoculation
Description: Female pathogen-free C57BL/6 mice (Harlan, Indianapolis, Ind.), 12 weeks old, weighing approximately 20-23 grams were used in all experiments. Mice were housed in standard cages at the University Laboratory Animals Facility and were allowed to acclimate for 7 days after delivery prior to the experiment. The animals were kept on a 12 hour light cycle and were provided with rodent chow (LabDiet 5001, PMI Int'l., Richmond, Ind.) and water ad libitum throughout the study.
Pentobarbital (Nembutal, Ovation Pharmaceuticals, Inc., Deerfield, Ill., manufactured by Hospira, Lake Forest, Ill.) was administered intraperatonially (50 mg/kg IP) for anesthesia. During the study, all mice were singly housed and all received 0.1 mg/kg buprenorphine (Buprenex; Reckitt Benckiser Pharmaceuticals Inc., Richmond, Va.) subcutaneously (SQ) twice daily for post-burn pain control.
The skin over the lumbrosacral and back region was clipped using a 35-W model 5-55E electrical clipper (Oyster-Golden A-S, Head no. 80, blade size 40). Depilatory cream (Nair® lotion) was applied for about 1.5 minutes, then wiped off with a damp paper towel. Skin was rinsed under the faucet in lukewarm water and then blotted dry.
The first buprenorphine dose (67 ul/20 g, 83 ul/25 g mouse or 0.1 ug/g) was administered SQ under the skin of the upper back.
All 8 mice were burned. […]

Nc1ncnc2c1ncn2[C@H]1C[C@H](O)[C@@H](COP(=O)(O)OP(=O)(O)OP(=O)(O)O)O1 [dATP, deoxyadenosine triphosphate]
biofilm biomass [1]: stimulated biofilm biomass
biofilm formation [2]: increased biofilm formation
biofilm formation [3]: increased biofilm formation
biofilm formation [4]: increased biofilm formation
rates of attachment in initial biofilm formation [5]: accelerated rates of attachment
programmed cell death (Cytotox-glo) ([6]; biofilm form): increased levels of programmed cell death
programmed cell death (Cytotox-glo) ([6]; planktonic form): increased levels of programmed cell death
extracellular DNA (eDNA) release ([7]; biofilm cultures, more pronounced effect than in planktonic): Stimulation of extracellular DNA (eDNA)
extracellular DNA (eDNA) release ([7]; planktonic cultures): Stimulation of extracellular DNA (eDNA)
aggregate formation on human bronchial epithelial cells ([8]; 400 μM dATP in media): promoted aggregate formation
increase of A. baumannii adherence to human bronchial epithelial cells ([8]; 400 μM dATP in media, 1 hour after incubation): about 100 fold

apyrase
biofilm biomass [1]: reduced biomass
effect on increased bacterial adherence (dATP or damaged cells) ([8]; Apyrase 200 mU/ml): completely arrested
adherence during initial stages of biofilm formation, cell count per gram of skin tissue [9]: decreased adherence

Source: patent US20140205586A1, “CONTROL OF BIOFILM FORMATION” (THE REGENTS OF THE UNIVERSITY OF MICHIGAN, priority 2010, published 2014)
